Key:
[1] = system: HIV-1; test: Anti-HIV-1 activity in TZM-GFP cells (viral LTR-activated GFP expression); assay type: cell-based; settings: for EC50: Human immunodeficiency virus 1, HIV-1 strain MOI=1, GFP positive cells counted after 48 hours; for inhibition at 2 µM: Human immunodeficiency virus 1, 2 μM compound; for inhibition at 2 µM / inhibition at 20 µM: HIV-1 MOI=1; for inhibition at 20 µM: Human immunodeficiency virus 1, 20 μM compound
Method: The potency of HIV-1 inhibition by a compound was based on its inhibitory effect on viral LTR-activated GFP expression compared with that of compound-free (DMSO) controls. Briefly, TZM-GFP cells were plated at density of 1×10^4 cells per well in a 96-well plate. 24 hours later, media was replaced with increasing concentrations of compound. 24 hours post treatment, cells were exposed to an HIV-1 strain (MOI=1).
(§1) The cytotoxicity of each compound was also determined in TZM-GFP cells. Cells were plated at a density of 1×10^4 cells per well in a 96-well plate and were continuously exposed to increasing concentrations of a compound for 72 hours. The number of viable cells in each well was determined using a Cell Proliferation Kit II (XTT), and 50% cytotoxicity concentration (CC50) values were determined. All the cell-based assays were conducted in duplicate and in at least two independent experiments. For the EC50 and CC50 dose responses, values were plotted in GraphPad Prism 5 and analyzed with the log (inhibitor) vs. normalized response-variable slope equation. Final values were calculated in each independent assay and the average values were determined. Statistical analysis (calculation of standard deviation) was performed by using Microsoft Excel.

[2] = Cytotoxicity in TZM-GFP cells (XTT); assay type: cell-based; settings: human, 72 hours exposure, XTT
Method: as §1

[3] = Microsomal stability assay, human liver microsomes; assay type: in vitro ADME
Method: (§2) The in vitro microsomal stability assay was conducted in duplicate in mouse and human liver microsomal systems, which were supplemented with nicotinamide adenine dinucleotide phosphate (NADPH) as a cofactor. […] The reaction was initiated by addition of 1 mM NADPH, followed by incubation at 37° C. A negative control was performed in parallel in the absence of NADPH to measure any chemical instability or non-NADPH dependent enzymatic degradation for each compound. At various time points (0, 5, 15, 30, and 60 minutes), 1 volume of reaction aliquot was taken and quenched with 3 volumes of acetonitrile containing an appropriate internal standard and 0.1% formic acid. The samples were then vortexed and centrifuged at 15,000 rpm for 5 minutes at 4° C. The supernatants were collected and analyzed by LC-MS/MS to determine the in vitro metabolic half-life (t1/2).

[4] = target: covalently-crosslinked hexameric CA A14C/E45C/W184A/M185A (CA121) (Human immunodeficiency virus type 1 group M subtype B, UniProt P12493, A146C/E177C/M317A/W316A); test: Thermal shift assay (TSA), CA hexamer stability; assay type: binding, HIV-1; settings: compound 20 μM, ΔTm=Tm−T0 vs DMSO
[5] = system: TZM-GFP cells; test: Cytotoxicity in TZM-GFP cells (XTT); assay type: cell-based; settings: 50 μM compound
Method: as §1

[6] = Microsomal stability assay, mouse liver microsomes; assay type: in vitro ADME; settings: NADPH
Method: as §2

[7] = pH 7.4, with Cobicistat 0.5 μM (CYP3A inhibitor), human liver microsomes, 1 μM compound, NADPH, with 0.5 μM Cobicistat (CYP3A inhibitor), read-out: HLM (+Cobi) half-life (t1/2)
[8] = 1 μM compound, without Cobicistat
[9] = human liver microsomes, 1 μM compound, NADPH, without Cobicistat
[10] = pH 7.4, 1 μM compound, without Cobicistat, read-out: MLM half-life (t1/2)
[11] = pH 7.4, human liver microsomes, 1 μM compound, NADPH, without Cobicistat, read-out: HLM half-life (t1/2)
[12] = pH 7.4, with Cobicistat 0.5 μM (CYP3A inhibitor), 1 μM compound, with 0.5 μM Cobicistat (CYP3A inhibitor), read-out: MLM (+Cobi) half-life (t1/2)
[13] = 1 μM compound, with 0.5 μM Cobicistat (CYP3A inhibitor)

O=C(Cn1c(=O)[nH]c2ccccc2c1=O)N[C@@H](Cc1ccccc1)C(=O)N1CCC[C@H]1C(=O)Nc1ccccc1 [Example 33, (S)-1-((2-(2,4-dioxo-1,4-dihydroquinazolin-3(2H)-yl)acetyl)-L-phenylalanyl)-N-phenylpyrrolidine-2-carboxamide]
EC50 [1]: 1.6 ± 0.1 µM | CC50 at 72 h [2]: > 100 µM | half-life in HLMs relative to PF74 ([3]; human liver microsomes, ratio of t1/2 to that of PF74): 44 fold | half-life at 1 μM [3, 7]: 578 min | half-life in combination with Cobicistat compared with PF74 ([3]; with CYP3A inhibitor Cobicistat, microsome species not given): significantly longer half-life than that of PF74 | TSA ΔTm (° C.) [4]: 2.5 °C

Cc1cn(CC(=O)N[C@@H](Cc2ccccc2)C(=O)N(C)c2ccc(Cl)cc2)c(=O)[nH]c1=O [Example 44, (S)—N-(4-chlorophenyl)-N-methyl-2-(2-(5-methyl-2,4-dioxo-3,4-dihydropyrimidin-1(2H)-yl)acetamido)-3-phenylpropanamide]
EC50 [1]: 1.7 ± 0.2 µM | CC50 at 72 h [2]: > 50 µM | TSA ΔTm (° C.) [4]: 1.7 °C

Cc1cn(CC(=O)N[C@@H](Cc2ccccc2)C(=O)N(C)c2cccc(Cl)c2)c(=O)[nH]c1=O [Example 45, (S)—N-(3-chlorophenyl)-N-methyl-2-(2-(5-methyl-2,4-dioxo-3,4-dihydropyrimidin-1(2H)-yl)acetamido)-3-phenylpropanamide]
inhibition at 2 µM [1]: 37% | inhibition at 20 µM [1]: 95% | CC50 at 72 h [2]: > 50 µM | TSA ΔTm (° C.) [4]: 0.6 °C

Cc1cn(CC(=O)N[C@@H](Cc2ccccc2)C(=O)N(C)c2ccc(F)cc2)c(=O)[nH]c1=O [Example 46, (S)—N-(4-fluorophenyl)-N-methyl-2-(2-(5-methyl-2,4-dioxo-3,4-dihydropyrimidin-1(2H)-yl)acetamido)-3-phenylpropanamide]
inhibition at 2 µM [1]: 6% | inhibition at 20 µM [1]: 94% | CC50 at 72 h [2]: > 50 µM | TSA ΔTm (° C.) [4]: 0 °C

Cc1cn(CC(=O)N[C@@H](Cc2ccccc2)C(=O)N(C)c2cccc(F)c2)c(=O)[nH]c1=O [Example 47, (S)—N-(3-fluorophenyl)-N-methyl-2-(2-(5-methyl-2,4-dioxo-3,4-dihydropyrimidin-1(2H)-yl)acetamido)-3-phenylpropanamide]
inhibition at 2 µM [1]: 0% | inhibition at 20 µM [1]: 74% | CC50 at 72 h [2]: > 50 µM | TSA ΔTm (° C.) [4]: 0.9 °C

Cc1cn(CC(=O)N[C@@H](Cc2ccccc2)C(=O)N(C)c2cccc(Br)c2)c(=O)[nH]c1=O [Example 48, (S)—N-(3-bromophenyl)-N-methyl-2-(2-(5-methyl-2,4-dioxo-3,4-dihydropyrimidin-1(2H)-yl)acetamido)-3-phenylpropanamide]
inhibition at 2 µM [1]: 22% | inhibition at 20 µM [1]: 99.7% | CC50 at 72 h [2]: > 50 µM | TSA ΔTm (° C.) [4]: 0.5 °C

Cc1[nH]c2ccccc2c1CC(=O)N[C@@H](Cc1ccccc1)c1ncccc1-c1ccccc1 [Example 49, (S)-2-(2-methyl-1H-indol-3-yl)-N-(2-phenyl-1-(3-phenylpyridin-2-yl)ethyl)acetamide]
EC50 [1]: 2.6 ± 0.4 µM | % viability at 50 μM [5]: 29 ± 12% | TSA ΔTm (° C.) [4]: 4.5 °C

O=C(Cn1ncc2ccccc21)N[C@@H](Cc1ccccc1)c1ncccc1-c1ccccc1 [Example 50, (S)-2-(1H-indazol-1-yl)-N-(2-phenyl-1-(3-phenylpyridin-2-yl)ethyl)acetamide]
EC50 [1]: 8.8 ± 0.4 µM | % viability at 50 μM [5]: 46 ± 13% | TSA ΔTm (° C.) [4]: 1.0 °C

O=C(Cn1cccn1)N[C@@H](Cc1ccccc1)c1ncccc1-c1ccccc1 [Example 51, (S)—N-(2-phenyl-1-(3-phenylpyridin-2-yl)ethyl)-2-(1H-pyrazol-1-yl)acetamide]
EC50 [1]: 5.1 ± 0.7 µM | % viability at 50 μM [5]: 102 ± 6% | TSA ΔTm (° C.) [4]: 1.1 °C

Cc1[nH]c2ccccc2c1CC(=O)N[C@@H](Cc1ccccc1)C(=O)N(C)c1ccccc1 [PF-74, reference compound]
MLM half-life (t1/2) [6, 8]: 0.6 min | MLM half-life (t1/2) ([6]; 1 μM compound, without Cobicistat, listed as PF74): less than 1 min | HLM half-life (t1/2) [3, 9]: less than 1 min

Cc1cccc2c1NC(=O)C2CC(=O)N[C@@H](Cc1ccccc1)C(=O)N(C)c1ccccc1 (some centres unmarked) [drawing 177]
half-life at 1 μM [6, 10]: 1 min | half-life at 1 μM [3, 11]: 7 min

Cc1cccc2c1NC(=O)C2CC(=O)N[C@@H](Cc1ccccc1)C(=O)N(C)c1cccc(F)c1 (some centres unmarked) [drawing 178]
half-life at 1 μM [6, 10]: 1.1 min | half-life at 1 μM [6, 12]: 20 min | half-life at 1 μM [3, 7]: 433 min | half-life at 1 μM [3, 11]: 2.5 min

Cc1ccc(C)c2c1NC(=O)C2CC(=O)N[C@@H](Cc1ccccc1)C(=O)N(C)c1ccccc1 (some centres unmarked) [drawing 179]
half-life at 1 μM [6, 10]: 0.6 min | half-life at 1 μM [3, 11]: 1.5 min

Cc1ccc(C)c2c1NC(=O)C2CC(=O)N[C@@H](Cc1ccccc1)C(=O)N(C)c1cccc(Cl)c1 (some centres unmarked) [drawing 180]
half-life at 1 μM [6, 10]: 1.4 min | half-life at 1 μM [6, 12]: 34 min | half-life at 1 μM [3, 7]: 107 min | half-life at 1 μM [3, 11]: 6.7 min

CN(C(=O)[C@H](Cc1ccccc1)NC(=O)Cc1ccc2ccccc2c1)c1ccccc1 [drawing 181]
half-life at 1 μM [6, 10]: 0.5 min | half-life at 1 μM [3, 11]: 1.8 min

CN(C(=O)[C@H](Cc1ccccc1)NC(=O)Cc1ccc2ccccc2c1)c1ccc(Cl)cc1 [drawing 182]
half-life at 1 μM [6, 10]: 1.4 min | half-life at 1 μM [6, 12]: 18 min | half-life at 1 μM [3, 7]: 239 min | half-life at 1 μM [3, 11]: 2.7 min

CN(C(=O)[C@H](Cc1ccccc1)NC(=O)Cc1cccc2ccccc12)c1ccccc1 [drawing 183]
half-life at 1 μM [6, 10]: 0.5 min | half-life at 1 μM [3, 11]: 0.6 min

CN(C(=O)[C@H](Cc1ccccc1)NC(=O)Cc1cccc2ccccc12)c1ccc(Cl)cc1 [drawing 184]
half-life at 1 μM [6, 10]: 0.6 min | half-life at 1 μM [6, 12]: 7.4 min | half-life at 1 μM [3, 7]: 102 min | half-life at 1 μM [3, 11]: 1.1 min

COc1ccc(N(C)C(=O)[C@H](Cc2ccccc2)NC(=O)CN2C(=O)NC3(CCCCC3)C2=O)cc1 [drawing 186]
half-life at 1 μM [6, 10]: 0.7 min | half-life at 1 μM [3, 11]: 5.2 min

Cc1ccc(N(C)C(=O)[C@H](Cc2ccccc2)NC(=O)CN2C(=O)NC3(CCCCC3)C2=O)cc1 [drawing 187]
half-life at 1 μM [6, 10]: 1.2 min | half-life at 1 μM [3, 11]: 3.3 min

CN(C(=O)[C@H](Cc1ccccc1)NC(=O)CN1C(=O)NC2(CCCCC2)C1=O)c1ccc(F)cc1 [drawing 188]
half-life at 1 μM [6, 10]: 0.5 min | half-life at 1 μM [3, 11]: 1.1 min

CN(C(=O)[C@H](Cc1ccccc1)NC(=O)CN1C(=O)NC2(CCCCC2)C1=O)c1ccc(Cl)cc1 [drawing 189]
half-life at 1 μM [6, 10]: 0.9 min | half-life at 1 μM [3, 11]: 3.1 min

CN(C(=O)[C@H](Cc1ccccc1)NC(=O)CNC(=O)c1ccccc1)c1ccccc1 [drawing 190]
MLM half-life (t1/2) [6, 8]: 3.6 min | HLM half-life (t1/2) [3, 9]: 15 min

Cc1ccc(N(C)C(=O)[C@H](Cc2ccccc2)NC(=O)CNC(=O)c2ccccc2)cc1 [drawing 191]
MLM (+Cobi) half-life (t1/2) [6, 13]: 34 min | MLM half-life (t1/2) [6, 8]: 5.0 min | HLM (+Cobi) half-life (t1/2) ([3]; human liver microsomes, 1 μM compound, NADPH, with 0.5 μM Cobicistat (CYP3A inhibitor)): 42 min | HLM half-life (t1/2) [3, 9]: 22 min

CN(C(=O)[C@H](Cc1ccccc1)NC(=O)CNC(=O)c1ccccc1)c1ccc(Cl)cc1 [drawing 192]
MLM (+Cobi) half-life (t1/2) [6, 13]: 52 min | MLM half-life (t1/2) [6, 8]: 13 min | HLM half-life (t1/2) [3, 9]: 36 min | half-life at 1 μM [3, 7]: 141 min

CN(C(=O)[C@H](Cc1ccccc1)NC(=O)CNC(=O)c1ccccc1)c1cccc(F)c1 [drawing 193]
MLM half-life (t1/2) [6, 8]: 3.6 min | HLM half-life (t1/2) [3, 9]: 12 min

CCN(C(=O)[C@H](Cc1ccccc1)NC(=O)CNC(=O)c1ccccc1)c1ccccc1 [drawing 194]
MLM (+Cobi) half-life (t1/2) [6, 13]: 28 min | MLM half-life (t1/2) [6, 8]: 2.4 min | HLM half-life (t1/2) [3, 9]: 14 min | half-life at 1 μM [3, 7]: 231 min

Cc1cn(CC(=O)N[C@@H](Cc2ccccc2)C(=O)N(C)c2ccc(Cl)cc2)c(=O)[nH]c1=O [drawing 195]
MLM half-life (t1/2) [6, 8]: 4.6 min | half-life at 1 μM [6, 12]: 385 min | HLM half-life (t1/2) [3, 9]: 12 min | half-life at 1 μM [3, 7]: 1390 min

Reference: patent US11850247B2, “Antiviral compounds” (REGENTS OF THE UNIVERSITY OF MINNESOTA, priority 2020, dated 2023)
